# Several values for one entry are separate records, joined by “and”; a condition that tells them apart may be missing. Equal entries are not always repeated.
# Molecular target: T1, human carbonic anhydrase II (Homo sapiens, UniProt P00918)
# T1 construct: purchased Sigma C-6165
# Assay: Carbonic anhydrase II inhibition assay (p-nitrophenol acetate, absorbance at 405 nm)
# Format: biochemical
# Settings: Table 2; overall value of N determinations; read-out: CA Assay IC50 (μM) and concentration of inhibitor added
# Experimental: Final concentrations of each inhibitor ranged from 1 picomolar to 1 micromolar. Control samples that included either no inhibitor or no enzyme were also performed.
# The admixture of substrate and enzyme initiates the enzyme reaction. […] The inhibition at each inhibitor concentration was measured in triplicate. The IC50 value was then derived using the GraphPad Prism curve fitting software. […] The compound number listed in Table 2 and 3 corresponds with the same compound number detailed in Table 1.
row,IC50,Structure (SMILES)
1,> 100 µM,"CS(=O)(=O)c1ccc(-n2nccc2-c2ccc(F)cc2)cc1 [IX, reference compound]"
2,> 100 µM,"CS(=O)(=O)c1ccc(C2=C(c3ccccc3)C(=O)OC2)cc1 [VIII, Rofecoxib, reference compound]"
3,> 100 µM,"O=C(c1ccc(-n2nc(C(F)(F)F)cc2-c2ccc(F)cc2)cc1)C(F)(F)F [X, reference compound]"
4,0.04 µM,CCCCOc1ccc(-c2cc(C(F)(F)F)nn2-c2ccc(S(N)(=O)=O)cc2)cc1 [Compound 2]
5,0.09 µM,CC(=O)SCc1cc(-c2ccc(Cl)cc2)n(-c2ccc(S(N)(=O)=O)cc2)n1 [Compound 4]
6,0.18 µM,C=C1N[C@@H]2[C@@H](CS[C@@H]2CCCCC(=O)NCCOCCOCCNC(=O)CSCc2cc(-c3ccc(Cl)cc3)n(-c3ccc(S(N)(=O)=O)cc3)n2)N1 [Compound 6]
7,0.04 µM,NS(=O)(=O)c1ccc(-n2nc(-c3ccccc3)cc2-c2ccccc2)cc1 [Compound 3]

# Same assay, conditions: Table 2; single values of the N determinations; read-out: CA Assay IC50 (μM), individual determinations in parentheses
row,IC50,Structure (SMILES)
1,0.03 µM and 0.04 µM,CCCCOc1ccc(-c2cc(C(F)(F)F)nn2-c2ccc(S(N)(=O)=O)cc2)cc1 [Compound 2]
2,0.015 µM and 0.021 µM and 0.004 µM,Cc1ccc(-c2cc(C(F)(F)F)n(-c3ccc(S(N)(=O)=O)cc3)n2)cc1 [Compound 1]

# Same assay, conditions: Table 3; mean; read-out: Mean IC50
row,IC50,Structure (SMILES)
1,0.0812 µM,NS(=O)(=O)c1ccc(-n2nc(C(F)(F)F)cc2O)cc1 [Compound 48]
2,0.389 µM,CNC(=O)c1nn(-c2ccc(S(N)(=O)=O)cc2)cc1-c1ccccc1 [Compound 58]
3,0.0777 µM,CNC(=O)c1nn(-c2ccc(S(N)(=O)=O)cc2)c2c1CCc1[nH]ncc1-2 [Compound 19]
4,0.018 µM,C/C=C/c1cc(C(F)F)nn1-c1ccc(S(N)(=O)=O)cc1 [Compound 35]
5,0.06 µM,NC(=O)c1nn(-c2ccc(S(N)(=O)=O)cc2)c2c1CCc1cnc(N)nc1-2 [Compound 24]
6,0.0035 µM,Cc1ccc(-c2cc(C(F)(F)F)n(-c3ccc(S(N)(=O)=O)cc3)n2)cc1 [Compound 63]
7,0.0338 µM,CS(=O)(=O)Nc1cccc(-c2cc(C(N)=O)nn2-c2ccc(S(N)(=O)=O)cc2)c1 [Compound 16]
8,0.0812 µM,NS(=O)(=O)c1ccc(-n2nc(C(F)(F)F)cc2O)cc1 [Compound 65]
9,0.0171 µM,CC(C)Oc1cc(C(F)(F)F)nn1-c1ccc(S(N)(=O)=O)cc1 [Compound 50]
10,0.0794 µM,NC(=O)c1cc(-c2ccco2)n(-c2ccc(S(N)(=O)=O)cc2)n1 [Compound 26]
11,0.239 µM,COC(=O)c1cc(-c2ccc(OC)cc2)n(-c2ccc(S(N)(=O)=O)cc2)n1 [Compound 31]
12,0.21 µM,NC(=O)c1cc(-c2ccccc2)n(-c2ccc(S(N)(=O)=O)cc2)n1 [Compound 38]
13,0.182 µM,COC(=O)c1cc(-c2ccccc2)n(-c2ccc(S(N)(=O)=O)cc2)n1 [Compound 32]
14,0.465 µM,NC(=O)c1nn(-c2ccc(S(N)(=O)=O)cc2)c2c1C[S+]([O-])c1ccccc1-2 (stereo not shown) [Compound 12]
15,0.06 µM,COc1ccc2c(c1F)C[S+]([O-])c1c(C(F)(F)F)nn(-c3ccc(S(N)(=O)=O)cc3)c1-2 (stereo not shown) [Compound 46]
16,0.251 µM,NS(=O)(=O)c1ccc(-n2ncc3c2-c2ccncc2CC3)cc1 [Compound 18]
17,0.127 µM,NC(=O)c1cc(-c2ccccn2)n(-c2ccc(S(N)(=O)=O)cc2)n1 [Compound 29]
18,0.0056 µM,CCOC(=O)c1nn(-c2ccc(S(N)(=O)=O)cc2)c2c1CCC=C2 [Compound 15]
19,0.435 µM,COCC(=O)Nc1ccc2c(c1)-c1c(c(C(N)=O)nn1-c1ccc(S(N)(=O)=O)cc1)CC2 [Compound 20]
20,0.109 µM,NS(=O)(=O)c1ccc(-n2ncc(C(F)(F)F)c2-c2ccccc2)cc1 [Compound 56]
21,0.599 µM,NS(=O)(=O)c1ccc(-n2nc(C(=O)O)cc2-c2ccccc2)cc1 [Compound 37]
22,0.0105 µM,NS(=O)(=O)c1ccc(-n2nc(C(F)(F)F)cc2C(=O)C(=O)c2ccccc2)cc1 [Compound 53]
23,1.22 µM,NC(=O)c1nn(-c2ccc(S(N)(=O)=O)cc2)c2c1CCc1cn(CCO)nc1-2 [Compound 21]
24,0.0184 µM,COC(C)Cc1cc(C(F)F)nn1-c1ccc(S(N)(=O)=O)cc1 (stereo not shown) [Compound 34]

row,IC50,Structure (SMILES)
1,0.181 µM,CN(C)/C=N/c1cccc(-c2cc(C(N)=O)nn2-c2ccc(S(N)(=O)=O)cc2)c1 [Compound 17]
2,0.202 µM,CCOc1cccc2c(C(N)=O)nn(-c3ccc(S(N)(=O)=O)cc3)c12 [Compound 23]
3,0.0671 µM,NS(=O)(=O)c1ccc(-n2nc(CO)cc2-c2ccc(O)cc2)cc1 [Compound 47]
4,0.0431 µM,NS(=O)(=O)c1ccc(-n2nc(C(F)(F)F)c3c2-c2ccccc2[S+]([O-])C3)cc1 (stereo not shown) [Compound 45]
5,0.08 µM,NS(=O)(=O)c1ccc(-n2nc(C(=O)NCC(=O)O)cc2-c2ccc(Cl)cc2)cc1 [Compound 44]
6,4.9 µM,COc1ccc(-c2cc(C(=O)O)nn2-c2ccc(S(N)(=O)=O)cc2)cc1 [Compound 42]
7,0.0356 µM,NC(=O)c1nn(-c2ccc(S(N)(=O)=O)cc2)c2c1CSCC2 [Compound 51]
8,0.0386 µM,NS(=O)(=O)c1ccc(-n2nc(C(F)(F)F)cc2-c2cccnc2)cc1 [Compound 33]
9,0.101 µM,NC(=O)c1nn(-c2ccc(S(N)(=O)=O)cc2)c2c1CNc1ccccc1-2 [Compound 14]
10,0.203 µM,COc1ccc(-c2ccnn2-c2ccc(S(N)(=O)=O)cc2)cc1 [Compound 43]
11,0.334 µM,CNC(=O)c1cc(-c2ccc(OC)cc2)n(-c2ccc(S(N)(=O)=O)cc2)n1 [Compound 41]
12,0.0463 µM,COC(C)(C)Cc1cc(C(F)F)nn1-c1ccc(S(N)(=O)=O)cc1 [Compound 36]
13,2.91 µM,C#CCN(CC#C)S(=O)(=O)c1ccc(-n2nc(C(N)=O)c3c2-c2nc(N)ncc2CC3)cc1 [Compound 25]
14,0.418 µM,NC(=O)c1cc(-c2ccncc2)n(-c2ccc(S(N)(=O)=O)cc2)n1 [Compound 27]
15,0.258 µM,COc1ccc(-c2cc(C(N)=O)nn2-c2ccc(S(N)(=O)=O)cc2)cc1 [Compound 39]
16,0.195 µM,NC(=O)c1nn(-c2ccc(S(N)(=O)=O)cc2)c2c1CCc1cnccc1-2 [Compound 8]
17,0.523 µM,NC(=O)c1cc(-c2cccnc2)n(-c2ccc(S(N)(=O)=O)cc2)n1 [Compound 28]
18,0.139 µM,NS(=O)(=O)c1ccc(-n2nc(C(F)(F)F)cc2C2CCNCC2)cc1 [Compound 57]
19,0.0087 µM,COc1cc(C(F)(F)F)nn1-c1ccc(S(N)(=O)=O)cc1 [Compound 49]
20,0.07 µM,CC1CCc2c(c(C(=O)O)nn2-c2ccc(S(N)(=O)=O)cc2)C1 (stereo not shown) [Compound 13]
21,0.0219 µM,NC(=O)c1nn(-c2ccc(S(N)(=O)=O)cc2)c2c1CCC=C2 [Compound 30]
22,0.0334 µM,COC(=O)C1c2ccccc2-c2c1cnn2-c1ccc(S(N)(=O)=O)cc1 (stereo not shown) [Compound 9]
23,1.24 µM,NS(=O)(=O)c1ccc(-n2nc(C(=O)O)c3c2-c2cn[nH]c2CC3)cc1 [Compound 22]

# Same assay, conditions: read-out: IC50 for inhibition of CA II activity
row,IC50,Structure (SMILES)
1,> 100 µM,"CS(=O)(=O)c1ccc(C2=C(c3ccccc3)C(=O)OC2)cc1 [VIII, Rofecoxib, reference compound]"
2,0.01 µM,Cc1ccc(-c2cc(C(F)(F)F)n(-c3ccc(S(N)(=O)=O)cc3)n2)cc1 [Compound 1]
